The values that follow come from patent publication US20090011410A1, “METHOD FOR TAILORING ADMINISTRATION OF DRUGS BY QUANTITATION OF MRNA” (priority 2004, published 2009).

For the assay, the system named is PUMA mRNA. The experiment in a line: drug-induced PUMA mRNA expression in whole blood of healthy adults. Particulars: for kinetics of PUMA induction: heparinized whole blood, 0-8 hours at 37° C., 20 μM BLM, 100 μM VP-16 (FIG. 5). The format is cell-based, human. The procedure:
In 8-well strip microtubes, 1.4 μl of 50× concentrations of drugs or controls (phosphate buffered saline (PBS) or DMSO) were added, and stored at −20° C. until use. […] Seventy μl of fresh heparinized whole blood was added into each well in triplicate, and incubated at 37° C. for 2-8 hours with the cap closed. For radiation treatment, blood was stimulated at designated doses using cesium-137. After each treatment, 50 μl of whole blood was transferred to filterplates as described below.
The mRNA and cDNA were prepared from whole blood. In brief, home-made 96-well filterplates were placed over collection plates, and 150 μl 5 mM Tris, pH 7.4, was applied. Following centrifugation at 120×g for 1 min at 4° C., 50 μl of blood samples were applied to each well and immediately centrifuged at 120×g for 2 min at 4° C., followed by washing of each well with 300 μl PBS once with centrifugation at 2000×g for 5 min at 4° C. Then, 60 μl stock lysis buffer, containing for example 0.5% N-Lauroylsarcosine, 4×SSC, 10 mM Tris HCl, pH 7.4, 1 mM EDTA, 0.1% IGEPAL CA-630, and 1.791 M guanidine thiocyanate, supplemented with 1% 2-mercaptoethanol (Bio Rad, Hercules, Calif., USA), 0.5 mg/ml proteinase K (Pierce, Rockford, Ill., USA), 0.1 mg/ml salmon sperm DNA (5 Prime Eppendorf/Brinkmann, Westbury, N.Y., USA), 0.1 mg/ml E. coli tRNA (Sigma), a cocktail of 10 mM each of the specific reverse primers shown in Table 1, and standard RNA34 oligonucleotides, were applied to the filterplates, followed by incubation at 37° C. for 10 min. The filterplates were then placed over oligo(dT)-immobilized microplates (GenePlate, RNAture), and centrifuged at 2000×g for 5 min at 4° C. Following overnight storage at 4° C., the microplates were washed with 100 μl plain lysis buffer 3 times, followed by 150 μl of wash buffer (0.5 M NaCl, 10 mM Tris, pH 7.4, 1 mM EDTA) 3 times at 4° C. The cDNA was directly synthesized in each well by adding 30 μl buffer containing 1×RT-buffer, 1.25 mM each of dNTP, 4 units rRNasin, and 80 units of MMLV reverse transcriptase (Promega) (without primers), and incubation at 37° C. for 2 hours. The specific primer-primed cDNA existed in solution, and oligo(dT)-primed cDNA stayed immobilized in the microplate. For TaqMan PCR (FIGS. 1, 3, 4), the resultant 4 μl cDNA solution was directly transferred to 384-well PCR plates, to which 5 μl of TaqMan universal master mix (ABI) and 1 μl oligonucleotide cocktail (15 μM each of forward and reverse primer, and 3-6 μM TaqMan probe) were applied, and PCR was conducted in PRISM 7900HT (ABI), with one cycle of 95° C. for 10 min followed by 45 cycles of 95° C. for 30 sec, 55° C. for 30 sec, and 60° C. for 1 min. For SYBR Green PCR (see FIG. 6), cDNA was diluted 3-4 fold in water, and 4 μl cDNA solution was directly transferred to 384-well PCR plates, to which 5 μl of a master mix (BioRad, Hercules, Calif.) and 1 μl of oligonucleotide cocktail (15 μM each of forward and reverse primer) were applied, and PCR was conducted in PRISM 7900HT (ABI), with one cycle of 95° C. for 10 min followed by 45 cycles of 95° C. for 30 sec and 60° C. for 1 min. Each gene was amplified in separate wells. The Ct was determined by analytical software (SDS, ABI). Although 1×RT buffer was used as a negative control, none of the primer pairs produced non-specific primer-dimers under these experimental conditions. For PUMA in FIG. 8, immobilized cDNA on the oligo(dT)-immobilized microplates was directly amplified in an iCycler (BioRad).
Quantitation of various mRNAs was conducted using the following method. Triplicate aliquots of 50 μl each of heparinized whole blood was applied to 96-well filterplates to trap leukocytes. The filterplates were placed over collection plates, and 150 μl 5 mM Tris, pH 7.4, was applied. […]

Where [1] appears, read: 20 μM BLM or 100 μM VP-16, 4 hours at 37° C. (FIG. 6).

As to `COc1cc([C@@H]2c3cc4c(cc3[C@@H](O[C@@H]3O[C@@H]5CO[C@@H](C)O[C@H]5[C@H](O)[C@H]3O)[C@H]3COC(=O)[C@H]23)OCO4)cc(OC)c1O` [VP-16, etoposide], the “kinetics of PUMA induction” value is reported as “transient induction”. Besides, the PUMA induction result under setting [1] was “responses were confirmed in all individuals”. Besides, the PUMA induction result (100 μM VP-16, 2 hours at 37° C. (FIG. 9C)) is reported as “induced”.
On to bleomycin [BLM], for which the “kinetics of PUMA induction” value is given as “increased continuously for 8 hours”. Moreover, the “concentration at which significant induction of PUMA was observed” value (0-20 μM BLM, 4 hours at 37° C. (FIG. 7)) is “more than 0.1 VM”. For the same molecule, the PUMA induction entry under setting [1] is recorded as “responses were confirmed in all individuals”. Besides, the PUMA induction result (BLM at concentrations as low as 0.2 μM, 2 hours at 37° C., all cases (FIG. 10C)) is on record as “induced”.
